Data from patent publication US12655125B2 (SIRONAX LTD., priority 2020, dated 2026).

The molecules below were run on HT-29 cells (assay: HT29 Cells 0FBS Assay In Vitro (TNF-α/SMAC mimetic/zVAD-FMK induced necroptosis, CellTiter-Glo cell viability)). Conditions: Homo sapiens; HT-29 cells, FBS free medium, TNF-α (10 ng/ml), SMAC mimetic (6 uM), zVAD-FMK (10 μM), 20 hours; geometric mean EC50; read-out: Cell activity (EC50) of Compounds 117-281.
Assay type: cell-based
Method in brief: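 HT-29 cells (5,000/well, seeded overnight) in serum-free McCoy's 5A were stimulated with TNF-α 10 ng/ml, SMAC mimetic 6 μM and zVAD-FMK 10 μM to induce necroptosis. Compound added as 10-point 3-fold series for 20 h at 37° C. CellTiter-Glo luminescence gives viability; EC50 is geometric mean of duplicate dose-responses.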

Structure (SMILES) | EC50 [nM]
CNS(=O)(=O)c1c(C)nn(-c2cc(OC3CN(C(=O)N4N=CC[C@H]4c4cc(F)cc(F)c4)C3)c(F)cn2)c1C [compound 230, (S)-1-(4-((1-(5-(3,5-difluorophenyl)-4,5-dihydro-1H-pyrazole-1-carbonyl)azetidin-3-yl)oxy)-5-fluoropyridin-2-yl)-N,3,5-trimethyl-1H-pyrazole-4-sulfonamide] | 0.1 to 100
CCNC(=O)c1c(C)nn(-c2cc(OC3CN(C(=O)N4N=CC[C@H]4c4cc(F)cc(F)c4)C3)c(F)cn2)c1C [compound 231, (S)-1-(4-((1-(5-(3,5-difluorophenyl)-4,5-dihydro-1H-pyrazole-1-carbonyl)azetidin-3-yl)oxy)-5-fluoropyridin-2-yl)-N-ethyl-3,5-dimethyl-1H-pyrazole-4-carboxamide] | 0.1 to 100
Cc1nn(-c2cc(OC3CN(C(=O)N4N=CC[C@H]4c4cc(F)cc(F)c4)C3)c(F)cn2)c(C)c1C(=O)NC1CC1 [compound 232, (S)—N-cyclopropyl-1-(4-((1-(5-(3,5-difluorophenyl)-4,5-dihydro-1H-pyrazole-1-carbonyl)azetidin-3-yl)oxy)-5-fluoropyridin-2-yl)-3,5-dimethyl-1H-pyrazole-4-carboxamide] | 0.1 to 100
Cc1nn(-c2cc(OC3CN(C(=O)N4N=CC[C@H]4c4cc(F)cc(F)c4)C3)c(F)cn2)c(C)c1C(=O)O [compound 233, (S)-1-(4-((1-(5-(3,5-difluorophenyl)-4,5-dihydro-1H-pyrazole-1-carbonyl)azetidin-3-yl)oxy)-5-fluoropyridin-2-yl)-3,5-dimethyl-1H-pyrazole-4-carboxylic acid] | 0.1 to 100
Cc1nn(-c2cc(OC3CN(C(=O)N4N=CCC4c4cc(F)cc(F)c4)C3)c(F)cn2)c(C)c1C(N)=O (stereo not shown) [compound 234, 1-(4-((1-(5-(3,5-difluorophenyl)-4,5-dihydro-1H-pyrazole-1-carbonyl)azetidin-3-yl)oxy)-5-fluoropyridin-2-yl)-3,5-dimethyl-1H-pyrazole-4-carboxamide] | 0.1 to 100
Cc1nn(-c2cc(OC3CN(C(=O)N4N=CC[C@H]4c4cc(F)cc(F)c4)C3)c(F)cn2)c(C)c1S(=O)(=O)NC1CCC1 [compound 235, (S)—N-cyclobutyl-1-(4-((1-(5-(3,5-difluorophenyl)-4,5-dihydro-1H-pyrazole-1-carbonyl)azetidin-3-yl)oxy)-5-fluoropyridin-2-yl)-3,5-dimethyl-1H-pyrazole-4-sulfonamide] | 0.1 to 100
Cc1nn(-c2cc(OC3CN(C(=O)N4N=CC[C@H]4c4cc(F)cc(F)c4)C3)c(F)cn2)c(C)c1S(=O)(=O)Cc1ccccc1 [compound 236, (S)-(3-((2-(4-(benzylsulfonyl)-3,5-dimethyl-1H-pyrazol-1-yl)-5-fluoropyridin-4-yl)oxy)azetidin-1-yl)(5-(3,5-difluorophenyl)-4,5-dihydro-1H-pyrazol-1-yl)methanone] | 0.1 to 100
Cc1c(-c2cc(OC3CN(C(=O)N4N=CC[C@H]4c4cc(F)cc(F)c4)C3)c(F)cn2)nn(C)c1C#N [compound 237, (S)-3-(4-((1-(5-(3,5-difluorophenyl)-4,5-dihydro-1H-pyrazole-1-carbonyl)azetidin-3-yl)oxy)-5-fluoropyridin-2-yl)-1,4-dimethyl-1H-pyrazole-5-carbonitrile] | 0.1 to 100
Cc1cn(C)c(=O)n1-c1cc(OC2CN(C(=O)N3N=CC[C@H]3c3cc(F)cc(F)c3)C2)c(F)cn1 [compound 238, (S)-3-(4-((1-(5-(3,5-difluorophenyl)-4,5-dihydro-1H-pyrazole-1-carbonyl)azetidin-3-yl)oxy)-5-fluoropyridin-2-yl)-1,4-dimethyl-1,3-dihydro-2H-imidazol-2-one] | 100 to 1000
Cc1nn(-c2cc(OC3CN(C(=O)N4N=CC[C@H]4c4cc(F)cc(F)c4)C3)c(F)cn2)c(C)c1CC(=O)N(C)C [compound 239, (S)-2-(1-(4-((1-(5-(3,5-difluorophenyl)-4,5-dihydro-1H-pyrazole-1-carbonyl)azetidin-3-yl)oxy)-5-fluoropyridin-2-yl)-3,5-dimethyl-1H-pyrazol-4-yl)-N,N-dimethylacetamide] | 0.1 to 100
